Common to all, as to assay: KINOMEscan kinase binding assay (Eurofins/DiscoveRx), % Ctrl
Test [1] has as its target T1, kinases (Homo sapiens, UniProt P36888, R834Q).
T1 construct: purchased Eurofins/DiscoveRx; host or cells: E. coli BL21-derived host (T7 phage display) for most kinases; HEK-293 for the rest
T1 sequence (P36888 27-993 R834Q): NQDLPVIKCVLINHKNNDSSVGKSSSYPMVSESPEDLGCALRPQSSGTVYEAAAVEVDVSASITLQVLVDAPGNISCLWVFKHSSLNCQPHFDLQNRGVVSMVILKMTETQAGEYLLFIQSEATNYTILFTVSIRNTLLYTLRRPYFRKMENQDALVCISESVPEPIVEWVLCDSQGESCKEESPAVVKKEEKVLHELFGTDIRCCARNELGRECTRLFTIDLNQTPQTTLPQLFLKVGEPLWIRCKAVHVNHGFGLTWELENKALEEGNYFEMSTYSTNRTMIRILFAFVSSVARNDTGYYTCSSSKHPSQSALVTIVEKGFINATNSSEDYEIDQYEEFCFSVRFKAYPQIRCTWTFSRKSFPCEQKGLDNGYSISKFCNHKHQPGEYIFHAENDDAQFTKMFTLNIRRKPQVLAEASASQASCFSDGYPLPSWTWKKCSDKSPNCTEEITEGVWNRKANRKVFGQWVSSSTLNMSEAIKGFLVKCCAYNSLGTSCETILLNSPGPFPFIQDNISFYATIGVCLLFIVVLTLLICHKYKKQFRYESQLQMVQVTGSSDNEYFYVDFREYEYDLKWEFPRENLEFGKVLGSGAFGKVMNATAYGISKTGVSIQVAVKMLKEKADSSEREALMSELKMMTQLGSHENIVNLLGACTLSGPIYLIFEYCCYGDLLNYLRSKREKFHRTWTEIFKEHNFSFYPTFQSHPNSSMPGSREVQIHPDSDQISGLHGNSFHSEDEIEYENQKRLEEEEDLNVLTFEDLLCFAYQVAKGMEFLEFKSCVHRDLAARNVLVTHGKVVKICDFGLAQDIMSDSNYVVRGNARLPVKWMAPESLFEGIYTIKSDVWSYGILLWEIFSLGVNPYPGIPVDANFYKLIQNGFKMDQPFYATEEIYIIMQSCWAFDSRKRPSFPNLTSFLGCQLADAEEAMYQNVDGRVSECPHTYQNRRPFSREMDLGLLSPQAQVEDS
Particulars: 1 μM; FLT3(R834Q). A digest of the protocol:
(§1)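 Competition binding, 1 h RT: phage-tagged or HEK-293-expressed DNA-tagged kinase + immobilized ligand + compound. Eluate kinase by qPCR. % Ctrl = (test − positive ctrl)/(negative ctrl − positive ctrl) × 100; lower means stronger binding.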

In test [2] the target is T2, kinases (Homo sapiens, UniProt P10721, D816V).
T2 construct: purchased Eurofins/DiscoveRx; host or cells: E. coli BL21-derived host (T7 phage display) for most kinases; HEK-293 for the rest
T2 sequence (P10721 26-976 D816V): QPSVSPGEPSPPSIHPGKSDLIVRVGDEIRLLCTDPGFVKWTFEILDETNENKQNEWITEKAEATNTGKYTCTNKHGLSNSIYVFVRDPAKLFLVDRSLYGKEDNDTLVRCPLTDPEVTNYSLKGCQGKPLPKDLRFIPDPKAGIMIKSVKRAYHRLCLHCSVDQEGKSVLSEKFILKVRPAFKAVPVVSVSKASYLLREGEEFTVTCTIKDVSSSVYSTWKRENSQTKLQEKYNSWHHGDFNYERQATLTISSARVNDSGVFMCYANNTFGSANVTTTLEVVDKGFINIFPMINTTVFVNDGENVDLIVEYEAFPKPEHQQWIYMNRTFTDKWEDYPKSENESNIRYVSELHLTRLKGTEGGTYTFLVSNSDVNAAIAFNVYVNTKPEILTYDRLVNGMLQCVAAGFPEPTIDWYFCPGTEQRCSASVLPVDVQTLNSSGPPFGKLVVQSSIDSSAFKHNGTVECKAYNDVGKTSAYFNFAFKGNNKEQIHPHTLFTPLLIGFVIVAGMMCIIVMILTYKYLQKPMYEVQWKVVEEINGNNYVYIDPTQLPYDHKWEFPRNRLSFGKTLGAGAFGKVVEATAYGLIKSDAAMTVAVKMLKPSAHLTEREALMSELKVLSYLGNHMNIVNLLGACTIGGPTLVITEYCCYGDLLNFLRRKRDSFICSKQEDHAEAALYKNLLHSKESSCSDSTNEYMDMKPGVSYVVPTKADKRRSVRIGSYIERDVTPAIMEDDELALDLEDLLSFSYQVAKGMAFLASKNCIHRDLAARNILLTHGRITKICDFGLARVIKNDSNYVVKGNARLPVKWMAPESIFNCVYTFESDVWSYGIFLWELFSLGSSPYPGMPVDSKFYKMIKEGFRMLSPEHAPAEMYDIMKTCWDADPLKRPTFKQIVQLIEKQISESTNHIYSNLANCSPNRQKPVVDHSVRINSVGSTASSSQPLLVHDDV
Particulars: 1 μM; KIT(D816V). A digest of the protocol: as §1

Test [3] deals with T3, kinases (Homo sapiens, UniProt P36888, D835H).
T3 construct: purchased Eurofins/DiscoveRx; host or cells: E. coli BL21-derived host (T7 phage display) for most kinases; HEK-293 for the rest
T3 sequence (P36888 27-993 D835H): T1 sequence (P36888 27-993 R834Q) with Q808R, D809H
Particulars: 1 μM; FLT3(D835H). A digest of the protocol:
as §1

The target in test [4] is T4, kinases (Homo sapiens, UniProt P00519, H396P).
T4 construct: purchased Eurofins/DiscoveRx; host or cells: E. coli BL21-derived host (T7 phage display) for most kinases; HEK-293 for the rest
Particulars: 1 μM. In short, it runs like this: as §1

Test [5] has as its target T5, kinases (Homo sapiens, UniProt P00533, DEL746-750).
T5 construct: purchased Eurofins/DiscoveRx; host or cells: E. coli BL21-derived host (T7 phage display) for most kinases; HEK-293 for the rest
Particulars: 1 μM; EGFR(E746-A750del). A digest of the protocol:
as §1

Structures are written as SMILES. Substitutions are numbered along the chain they refer to.

Consider `Cc1cc2c([nH]1)/C=C1\C(=O)Nc3ccc(cc31)O[C@@H](C)COCCN(C)C2=O` [Ex. 92, [10S,16a(17)Z]-2,5,10-trimethyl-6,7,9,10-tetrahydro-1H-12,14-(ethanediylidene)dipyrrolo[3,2-i:3′,4′-l][1,4,7]dioxazacyclopentadecine-4,16(5H,15H)-dione], for which the “% Ctrl, FLT3(R834Q)” value in test [1] was 75 % Ctrl. In addition, the “% Ctrl, KIT(D816V)” value in test [2] is 59 % Ctrl. In test [3], the “% Ctrl, FLT3(D835H)” value was found to be 32 % Ctrl. Further, in test [4], the “% Ctrl, ABL1(H396P)-nonphosphorylated” value is reported as 0.3 % Ctrl and the “% Ctrl, ABL1(H396P)-phosphorylated” value was 46 % Ctrl. Also, in test [5], the “% Ctrl, EGFR(E746-A750del)” value is 100 % Ctrl.

Regarding `Cc1cc2c([nH]1)/C=C1\C(=O)Nc3ccc(cc31)-c1cnn(C)c1COCCN(C)C2=O` [Ex. 124, [3a(4)Z]-6,9,14-trimethyl-10,11,13,14-tetrahydro-2H-1,17-(ethanediylidene)pyrazolo[4,3-m]dipyrrolo[3,2-f:3′,4′-i][1,4]oxazacyclopentadecine-3,8(5H,9H)-dione], the “% Ctrl, FLT3(R834Q)” value in test [1] came out at 0 % Ctrl. Also, the “% Ctrl, KIT(D816V)” value in test [2] is 0.7 % Ctrl. Moreover, the “% Ctrl, FLT3(D835H)” value in test [3] amounted to 0.05 % Ctrl. For the same compound, in test [4], the “% Ctrl, ABL1(H396P)-nonphosphorylated” value is 0.5 % Ctrl and the “% Ctrl, ABL1(H396P)-phosphorylated” value is 0 % Ctrl. Also, in test [5], the “% Ctrl, EGFR(E746-A750del)” value was 15 % Ctrl.

As for `Cc1cc2c([nH]1)/C=C1\C(=O)Nc3ccc(cc31)-c1cnn(C)c1CNCCN(C)C2=O` [Ex. 125, [3a(4)Z]-6,9,14-trimethyl-9,10,11,12,13,14-hexahydro-1,17-(ethanediylidene)pyrazolo[4,3-m]dipyrrolo[3,2-f:3′,4′-i][1,4]diazacyclopentadecine-3,8(2H,5H)-dione], in test [1], the “% Ctrl, FLT3(R834Q)” value came out at 0.3 % Ctrl. For the same compound, in test [2], the “% Ctrl, KIT(D816V)” value stood at 0.5 % Ctrl. Also, the “% Ctrl, FLT3(D835H)” value in test [3] is on record as 0.05 % Ctrl. In test [4], the “% Ctrl, ABL1(H396P)-nonphosphorylated” value stood at 0 % Ctrl and the “% Ctrl, ABL1(H396P)-phosphorylated” value was 0.1 % Ctrl. In addition, the “% Ctrl, EGFR(E746-A750del)” value in test [5] came to 20 % Ctrl.

On to `Cc1cc2c([nH]1)/C=C1\C(=O)Nc3ccc(cc31)-c1cnn(C)c1CN(C)CCN(C)C2=O` [Ex. 126, [3a(4)Z]-6,9,12,14-tetramethyl-9,10,11,12,13,14-hexahydro-1,17-(ethanediylidene)pyrazolo[4,3-m]dipyrrolo[3,2-f:3′,4′-i][1,4]diazacyclopentadecine-3,8(2H,5H)-dione], for which the “% Ctrl, FLT3(R834Q)” value in test [1] came to 0 % Ctrl. Further, in test [2], the “% Ctrl, KIT(D816V)” value worked out at 0.3 % Ctrl. Also, the “% Ctrl, FLT3(D835H)” value in test [3] amounted to 0.05 % Ctrl. In addition, in test [4], the “% Ctrl, ABL1(H396P)-nonphosphorylated” value amounted to 0 % Ctrl and the “% Ctrl, ABL1(H396P)-phosphorylated” value worked out at 0.1 % Ctrl. Also, in test [5], the “% Ctrl, EGFR(E746-A750del)” value was found to be 3.9 % Ctrl.

As to `Cc1cc2c([nH]1)/C=C1\C(=O)Nc3ccc(cc31)-c1c(C)n[nH]c1CNCCN(C)C2=O` [Ex. 127, [3a(4)Z]-6,9,16-trimethyl-9,10,11,12,13,14-hexahydro-1,17-(ethanediylidene)pyrazolo[4,3-m]dipyrrolo[3,2-f:3′,4′-i][1,4]diazacyclopentadecine-3,8(2H,5H)-dione], the “% Ctrl, FLT3(R834Q)” value in test [1] worked out at 13 % Ctrl. In addition, in test [2], the “% Ctrl, KIT(D816V)” value was found to be 48 % Ctrl. The “% Ctrl, FLT3(D835H)” value in test [3] is on record as 0.15 % Ctrl. In test [4], the “% Ctrl, ABL1(H396P)-nonphosphorylated” value turned out to be 0 % Ctrl and the “% Ctrl, ABL1(H396P)-phosphorylated” value is on record as 0 % Ctrl. In addition, the “% Ctrl, EGFR(E746-A750del)” value in test [5] was 13 % Ctrl.

In the case of `Cc1cc2c([nH]1)/C=C1\C(=O)Nc3ccc(cc31)-c1c(noc1C)COCCN(C)C2=O` [Ex. 128, [3a(4)Z]-6,9,16-trimethyl-1,11-dihydro-2H,13H-1,17-(ethanediylidene)[1,4]oxazolo[4,3-m]dipyrrolo[3,2-f:3′,4′-i][1,4]oxazacyclopentadecine-3,8(5H,9H)-dione], the “% Ctrl, FLT3(R834Q)” value in test [1] turned out to be 68 % Ctrl. In addition, in test [2], the “% Ctrl, KIT(D816V)” value was determined as 84 % Ctrl. Moreover, the “% Ctrl, FLT3(D835H)” value in test [3] was 23 % Ctrl. Besides, in test [4], the “% Ctrl, ABL1(H396P)-nonphosphorylated” value turned out to be 28 % Ctrl and the “% Ctrl, ABL1(H396P)-phosphorylated” value is given as 51 % Ctrl. Also, the “% Ctrl, EGFR(E746-A750del)” value in test [5] was found to be 86 % Ctrl.

On to `Cc1cc2c([nH]1)/C=C1\C(=O)Nc3ccc(cc31)OCCOCCNC2=O` [Ex. 129, [16a(17)Z]-2-methyl-6,7,9,10-tetrahydro-1H-12,14-(ethanediylidene)dipyrrolo[3,2-i:3′,4′-l][1,4,7]dioxazacyclopentadecine-4,16(5H,15H)-dione], for which, in test [1], the “% Ctrl, FLT3(R834Q)” value is given as 84 % Ctrl. The “% Ctrl, KIT(D816V)” value in test [2] is recorded as 93 % Ctrl. Also, the “% Ctrl, FLT3(D835H)” value in test [3] was found to be 44 % Ctrl. Also, in test [4], the “% Ctrl, ABL1(H396P)-nonphosphorylated” value stood at 87 % Ctrl and the “% Ctrl, ABL1(H396P)-phosphorylated” value is reported as 93 % Ctrl. Also, the “% Ctrl, EGFR(E746-A750del)” value in test [5] is listed as 100 % Ctrl.

Take `Cc1cc2c([nH]1)/C=C1\C(=O)Nc3cc(Cl)c(cc31)OCCOCCN(C)C2=O` [Ex. 131, [16a(17)Z]-19-chloro-2,5-dimethyl-6,7,9,10-tetrahydro-1H-12,14-(ethanediylidene)dipyrrolo[3,2-i:3′,4′-l][1,4,7]dioxazacyclopentadecine-4,16(5H,15H)-dione]: the “% Ctrl, FLT3(R834Q)” value in test [1] came out at 6.6 % Ctrl. In test [2], the “% Ctrl, KIT(D816V)” value is reported as 1.2 % Ctrl. The “% Ctrl, FLT3(D835H)” value in test [3] is on record as 0 % Ctrl. Further, in test [4], the “% Ctrl, ABL1(H396P)-nonphosphorylated” value was 0 % Ctrl and the “% Ctrl, ABL1(H396P)-phosphorylated” value amounted to 0 % Ctrl. The “% Ctrl, EGFR(E746-A750del)” value in test [5] was 11 % Ctrl.

For `Cc1cc2c([nH]1)/C=C1\C(=O)Nc3cc(Cl)c(cc31)OCCO[C@@H](C(=O)NC1CNC1)CN(C)C2=O` [Ex. 133, [7R,16a(17)Z]-N-(azetidin-3-yl)-19-chloro-2,5-dimethyl-4,16-dioxo-4,5,6,7,9,10,15,16-octahydro-1H-12,14-(ethanediylidene)dipyrrolo[3,2-i:3′,4′-l][1,4,7]dioxazacyclopentadecine-7-carboxamide], in test [1], the “% Ctrl, FLT3(R834Q)” value was determined as 49 % Ctrl. Further, the “% Ctrl, KIT(D816V)” value in test [2] came out at 34 % Ctrl. Moreover, the “% Ctrl, FLT3(D835H)” value in test [3] was 39 % Ctrl. For the same compound, in test [4], the “% Ctrl, ABL1(H396P)-nonphosphorylated” value is reported as 49 % Ctrl and the “% Ctrl, ABL1(H396P)-phosphorylated” value came to 67 % Ctrl. Also, the “% Ctrl, EGFR(E746-A750del)” value in test [5] stood at 100 % Ctrl.

Source of the values: US20230257396A1, “MACROCYCLES AND THEIR USE” (BLOSSOMHILL THERAPEUTICS, INC., priority 2020, published 2023).
